# Calls of active or inactive are those of the source. The rule behind the calls is not given here.
# Target: Procathepsin L (Homo sapiens, UniProt P07711)
# Test: Inhibition of human cathepsin L
Structure (SMILES),IC50 [nM],Activity
COC(=O)CSC(=O)NNC(=O)[C@H](Cc1c[nH]c2ccccc12)NC(=O)OC(C)(C)C,201,–
CC(C)(C)OC(=O)N[C@@H](Cc1c[nH]c2ccccc12)C(=O)NNC(=O)CCC(=O)N1CCCc2ccccc21,–,inactive
CC(C)(C)OC(=O)N[C@@H](Cc1c[nH]c2ccccc12)C(=O)NNC(=O)OCC(=O)N1CCCc2ccccc21,7,–
CCc1ccccc1NC(=O)CSC(=O)NNC(=O)CCc1c[nH]c2ccccc12,21800,–
CCc1ccccc1NC(=O)CSC(=O)NNC(=O)CNC(=O)OC(C)(C)C,–,inactive
CC(C)(C)OC(=O)N[C@@H](Cc1c[nH]c2ccccc12)C(=O)NNC(=O)SC1CCN(c2ccccc2)C1=O (some centres undefined),110,–
CC(C)(C)OC(=O)N[C@@H](Cc1c[nH]c2ccccc12)C(=O)NNC(=O)SCC(=O)N1CCCc2ccccc21,41,–
CCc1ccccc1NC(=O)CSC(=O)NNC(=O)[C@H](Cc1ccccc1)NC(=O)OC(C)(C)C,115,–
CC(C)(C)OC(=O)N[C@@H](Cc1c[nH]c2ccccc12)C(=O)NNC(=O)NCC(=O)N1CCCc2ccccc21,3000,–

# — ChEMBL document CHEMBL1145569, “Design, synthesis, and evaluation of inhibitors of cathepsin L: Exploiting a unique thiocarbazate chemotype” (Bioorg Med Chem Lett, 2008)
